Experimental findings from PubChem BioAssay AID1259411 (Chemical Carcinogenesis Research Information System (CCRIS), 2018) are described below.

This data set deals with rodent carcinogenicity bioassays, tumor incidence. Briefly: CCRIS carcinogenicity studies. An outline of the steps: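 Archive of carcinogenicity, mutagenicity, tumor promotion and tumor inhibition results drawn from journals, NCI reports and other sources, expert-reviewed; covers 1985-2011 and is no longer updated.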

Activity calls are given as the source filed them. No rule for the calls is given here.

As to `Clc1cccc(-c2ccc(Cl)c(Cl)c2Cl)c1Cl`, the carcinogen call is “active; positive” (Species: MOUSE, Strain/Sex: BALB/MALE, Route: ORAL, Dose: 300 MG/KG IN DIET FOR 6 OR 11 MO, Tumor Site: Type of Lesion: LIVER: HEPATOMA); “equivocal” (Species: RAT, Strain/Sex: F344/FEMALE, Route: ORAL, Dose: 0, 25, 50, 100 PPM IN DIET FOR 104-105 WK (STUDY DURATION: 104-105 WK), Dose: 0, 25, 50, 100 PPM IN DIET FOR 104-105 WK (STUDY DURATION: 104-105 WK), Tumor Site: Type of Lesion: LIVER: ADENOMA, STOMACH: ADENOMA, ADENOCARCINOMA); “equivocal” (Species: RAT, Strain/Sex: F344/MALE, Route: ORAL, Dose: 0, 25, 50, 100 PPM IN DIET FOR 104-105 WK (STUDY DURATION: 104-105 WK), Dose: 0, 25, 50, 100 PPM IN DIET FOR 104-105 WK (STUDY DURATION: 104-105 WK), Tumor Site: Type of Lesion: LIVER: HEPATOCELLULAR ADENOMA, HEPATOCELLULAR CARCINOMA, GASTROINTESTINAL SYSTEM: ADENOCARCINOMA OR CARCINOMA); “active; positive” (Species: RAT, Strain/Sex: SPRAGUE-DAWLEY/FEMALE, Route: ORAL, Dose: 0, 25, 50, 100 PPM IN DIET FOR THE DURATION OF STUDY (STUDY DURATION: 24 MO), Dose: 0, 25, 50, 100 PPM IN DIET FOR THE DURATION OF STUDY (STUDY DURATION: 24 MO), Tumor Site: Type of Lesion: LIVER: TUMOR); “active; positive” (Species: RAT, Strain/Sex: SPRAGUE-DAWLEY/MALE, Route: ORAL, Dose: 0, 25, 50, 100 PPM IN DIET FOR THE DURATION OF STUDY (STUDY DURATION: 24 MO), Dose: 0, 25, 50, 100 PPM IN DIET FOR THE DURATION OF STUDY (STUDY DURATION: 24 MO), Tumor Site: Type of Lesion: THYROID GLAND: ADENOMA OR CARCINOMA).
With `O=[N+]([O-])c1ccc2ccc3c([N+](=O)[O-])c4ccccc4c4ccc1c2c34`, the carcinogen call by setting is: (Species: RAT, Strain/Sex: F344/MALE, Route: SUBCUTANEOUS IMPLANT, Dose: 0, 8, 40, 200, 1000 UG IN 50 µL BEESWAX/TRICAPRYLIN IMPLANTED FOR UP TO 45 WK (STUDY DURATION: 45 WK), Dose: 0, 8, 40, 200, 1000 UG IN 50 µL BEESWAX/TRICAPRYLIN IMPLANTED FOR UP TO 45 WK (STUDY DURATION: 45 WK)) “inactive; negative”; (Species: RAT, Strain/Sex: F344/MALE, Route: SUBCUTANEOUS, Dose: 0, 8, 40, 200, 1000 UG SUSPENDED IN BEESWAX/TRICAPRYLIN (1:1) ONCE, Dose: 0, 8, 40, 200, 1000 UG SUSPENDED IN BEESWAX/TRICAPRYLIN (1:1) ONCE) “inactive; negative”.
Take `COc1ccc([N+](=O)[O-])cc1N=Nc1c(O)c(C(=O)Nc2cccc([N+](=O)[O-])c2)cc2ccccc12`: the carcinogen call is, setting by setting: (Species: MOUSE, Strain/Sex: B6C3F1/FEMALE, Route: ORAL, Dose: 0, 10000, 25000, 50000 PPM IN DIET FOR 720 D (STUDY DURATION: 104 WK), Dose: 0, 10000, 25000, 50000 PPM IN DIET FOR 720 D (STUDY DURATION: 104 WK)) “inactive; negative”; (Species: MOUSE, Strain/Sex: B6C3F1/MALE, Route: ORAL, Dose: 0, 10000, 25000, 50000 PPM IN DIET FOR 720 D (STUDY DURATION: 104 WK), Dose: 0, 10000, 25000, 50000 PPM IN DIET FOR 720 D (STUDY DURATION: 104 WK)) “inactive; negative”; (Species: RAT, Strain/Sex: F344/FEMALE, Route: ORAL, Dose: 0, 10000, 25000, 50000 PPM IN DIET FOR 720 D (STUDY DURATION: 105 WK), Dose: 0, 10000, 25000, 50000 PPM IN DIET FOR 720 D (STUDY DURATION: 105 WK)) “inactive; negative”; (Species: RAT, Strain/Sex: F344/MALE, Route: ORAL, Dose: 0, 10000, 25000, 50000 PPM IN DIET FOR 103 WK (STUDY DURATION: 105 WK), Dose: 0, 10000, 25000, 50000 PPM IN DIET FOR 103 WK (STUDY DURATION: 105 WK), Tumor Site: Type of Lesion: KIDNEY: RENAL TUBULE ADENOMA OR CARCINOMA, MULTIPLE ORGANS: MONONUCLEAR CELL LEUKEMIA) “equivocal”.
For `O=C1O[C@H]([C@H](O)CO)C(O)=C1O`, the carcinogen call (Species: MOUSE, Strain/Sex: B6C3F1/FEMALE, Route: ORAL, Dose: 0, 2.5, 5% IN DRINKING WATER FOR 96 WK (STUDY DURATION: 110 WK), Dose: 0, 2.5, 5% IN DRINKING WATER FOR 96 WK (STUDY DURATION: 110 WK)) was “inactive; negative”; the carcinogen call (Species: MOUSE, Strain/Sex: B6C3F1/MALE, Route: ORAL, Dose: 0, 1.25, 2.5% IN DRINKING WATER FOR 96 WK (STUDY DURATION: 110 WK), Dose: 0, 1.25, 2.5% IN DRINKING WATER FOR 96 WK (STUDY DURATION: 110 WK)) is “inactive; negative”; the carcinogen call (Species: RAT, Strain/Sex: F344/FEMALE, Route: ORAL, Dose: 0, 1.25%, 2.5% IN TAP DRINKING WATER FOR 104 WK (STUDY DURATION: LIFESPAN), Dose: 0, 1.25%, 2.5% IN TAP DRINKING WATER FOR 104 WK (STUDY DURATION: LIFESPAN)) is “inactive; negative”; the carcinogen call (Species: RAT, Strain/Sex: F344/MALE, Route: ORAL, Dose: 0, 1.25%, 2.5% IN TAP DRINKING WATER FOR 104 WK (STUDY DURATION: LIFESPAN), Dose: 0, 1.25%, 2.5% IN TAP DRINKING WATER FOR 104 WK (STUDY DURATION: LIFESPAN)) was “inactive; negative”.
`O=CNC(N1CCOCC1)C(Cl)(Cl)Cl` (stereo unspecified): the carcinogen call reads like this: (Species: RAT, Strain/Sex: WISTAR/FEMALE, Route: ORAL, Dose: 0, 67, 330, 665 MG/KG IN DIET LESS THAN 2 YR (STUDY DURATION: LESS THAN 2 YR), Dose: 0, 67, 330, 665 MG/KG IN DIET LESS THAN 2 YR (STUDY DURATION: LESS THAN 2 YR)) “inactive; negative”; (Species: RAT, Strain/Sex: WISTAR/MALE, Route: ORAL, Dose: 0, 67, 330, 665 MG/KG IN DIET LESS THAN 2 YR (STUDY DURATION: LESS THAN 2 YR), Dose: 0, 67, 330, 665 MG/KG IN DIET LESS THAN 2 YR (STUDY DURATION: LESS THAN 2 YR)) “inactive; negative”.
Take `O[C@@H]1C=Cc2c(ccc3cc4ccc5ccccc5c4nc23)[C@H]1O`: the carcinogen call is, setting by setting: (Species: MOUSE, Strain/Sex: CD-1/FEMALE, Route: INTRAPERITONEAL, Dose: 0, 175 NMOL (TOTAL DOSE) ADMINISTERED AS 1/7 OF DOSE WITHIN 24 HR AFTER BIRTH, 2/7 OF DOSE AT 8 D OLD, 4/7 OF DOSE AT 15, Tumor Site: Type of Lesion: LUNG: TUMOR) “active; positive”; (Species: MOUSE, Strain/Sex: CD-1/MALE, Route: INTRAPERITONEAL, Dose: 0, 175 NMOL (TOTAL DOSE) ADMINISTERED AS 1/7 OF DOSE WITHIN 24 HR AFTER BIRTH, 2/7 OF DOSE AT 8 D OLD, 4/7 OF DOSE AT 15, Tumor Site: Type of Lesion: LIVER: TUMOR, LUNG: TUMOR) “active; positive”.
On to `CC1CS(=O)(=O)CCN1/N=C/c1ccc([N+](=O)[O-])o1` (stereo unspecified), for which the carcinogen call was “active; positive” (Species: MOUSE, Strain/Sex: SWISS/FEMALE, Route: INTRAPERITONEAL, Dose: 0, 8 UG/G BW 1/D FOR 30 DAYS (STUDY DURATION: LIFETIME), Tumor Site: Type of Lesion: LYMPHATIC SYSTEM: LYMPHOMA) and “active; positive” (Species: MOUSE, Strain/Sex: SWISS/FEMALE, Route: INTRAPERITONEAL, Dose: 0, 8 UG/G BW 1/D FOR 60 DAYS (STUDY DURATION: LIFETIME), Tumor Site: Type of Lesion: LYMPHATIC SYSTEM: LYMPHOMA).
